Laboratory results from US5863550A, “Cholestasis ameliorant” (Tokyo Tanabe Company Limited, priority 1993, dated 1999).
“Also recorded” adds a separate entry of the source.

Columns and labels:
intrahepatic cholestasis = conditions: cited from earlier work
[1] = Acute toxicity (LD50), intravenous, beagle dogs; design: species or system 8 to 11-month old beagle dogs; conditions: dog, in vivo, both sexes
Protocol: (§1) The acute toxicity (LD50) of intravenously administered tauroursodeoxycholic acid was evaluated in 6-week old male and female CD rats and 8 to 11-month old male and female beagle dogs. The LD50 was 600 to 800 mg/kg in male rats and 800 to 1000 mg/kg in female rats.

[2] = test system: bile flow reduction induced by estradiol-17β-D-glucuronide (E-17-G); test: Ameliorative effect against cholestasis in rats (E-17-G-induced reduction of bile flow); assay type: in vivo, female SD rats
Protocol: An extra external-biliary fistula was developed in female SD rats under anesthesia and, after bile collection for 30 minutes, estradiol-17β-D-glucuronide (E-17-G) was administered via their femoral veins as a single dose of 10 μ mole/kg. Immediately after the administration, tauroursodeoxycholic acid was continuously administered over two hours via the femoral veins at a rate of 0.6 μ mole/min/100 g body weight, and the bile flow was measured serially.

[3] = test system: hepatic injury induced by α-naphthylisothiocyanate (ANIT); test: Protective effect against hepatic injury in mice (ANIT); assay type: in vivo, male ICR mice
Protocol: Tauroursodeoxycholic acid was administered to male ICR mice via their caudal veins at a dose within a range of 100 to 1200μ mole/kg two hours before and two hours after an administration of α-naphthylisothiocyanate (ANIT) as a single dose of 80 mg/kg. Serum bilirubin concentration, total bile acid concentration and LDH activity were measured two days after the ANIT administration.

[4] = Acute toxicity (LD50), intravenous, rats; design: species or system 6-week old CD rats; conditions: rat, in vivo
Protocol: as §1

Solubility in water = assay type: physicochemical; conditions: in words
[5] = test system: patients with cholestasis; test: Clinical results of tauroursodeoxycholic acid injection (patients with cholestasis / jaundice); assay type: in vivo, human (patients)
Protocol: Since tylosis of the gallbladder walls was observed by abdominal ultrasonic imaging and there were severe icteric symptoms, this case was diagnosed as cholestasis due to drug-induced hepatopathy.
At a stage when moderate jaundice still remained (total bilirubin: 6.9 mg/dl) and no improvement had been noted in subjective symptoms such as skin itching and epigastric discomfort, tauroursodeoxycholic acid was intravenously injected once a day at a dose of 100 mg for 14 days. As a result, the total bilirubin level, GOT and GPT were decreased to 2.1 mg/dl, 45 U/l and 36 U/l, respectively, and the icteric symptoms as well as the subjective symptoms such as skin itching and epigastric discomfort were disappeared.
[…] After the patient came back to Japan on April 5 and was hospitalized, tauroursodeoxycholic acid was intravenously administered once a day at a dose of 100 mg for 14 days.
At a stage when moderate jaundice was observed (total bilirubin: 9.0 mg/dl, GOT: 838 U/l, GPT 451 U/l), tauroursodeoxycholic acid was administered once a day at a dose of 300 mg by intravenous drip infusion for 14 days.
This patient was diagnosed to suffer from cholestasis due to acute viral hepatitis based on results of immuno-serological test including GOT of 11600 U/l, GPT of 6300 U/l and total bilirubin level of 7.7 mg/dl and HBV positive result of virological test as well as severe icteric symptoms.
At a stage when jaundice was still severe (total bilirubin: 16.19 mg/dl), tauroursodeoxycholic acid was administered once a day at a dose of 300 mg by intravenous drip infusion for 14 days. As a result, the total bilirubin level, GOT and GPT were decreased to 4.4 mg/dl, 48 U/l and 36 U/l, respectively, icteric symptoms were improved from the day after one week of the administration and subjective symptoms such as skin itching and systemic malaise were disappeared by the 10th day of the administration.
This patient began to feel general malaise in late June 1993 and, since jaundice appeared on Jun. 28, they visited a neighboring clinic and received treatment. In spite of that, jaundice was not improved and they referred to our medical institution on July 5. Based on the results of inspections, the patient was diagnosed to suffer cholestasis due to acute viral hepatitis (type B).
Tauroursodeoxycholic acid was administered by intravenous injection once a day at a dose of 600 mg for 18 days from July 8.
This patient noticed jaundice in the middle of May 1993 and consulted a doctor. Their symptom was diagnosed as obstructive jaundice based on images of enlargement of the bilateral intrahepatic bile ducts and 3-4 cm long irregular stenosis in the choledoch observed in endoscopic retrograde cholangiopancreatography (ERCP) and underwent endoscopic […] bile duct drainage (ENBD) on May 31.
Because icteric symptoms were not improved, tauroursodeoxycholic acid was intravenously injected once a day at a dose of 100 mg for 22 days.
This patient was diagnosed to suffer from pancreatic cancer by ERCP. […] Concurrently, icteric symptoms and skin itching were continued. Therefore, tauroursodeoxycholic acid was intravenously injected once a day at a dose of 600 mg for 38 days. As a result, the total bilirubin level was decreased to 3.3 mg/dl, the bile flow was increased from the preadministration level of 230 ml/day to 440 ml/day, and icteric symptoms and skin itching were improved.

[6] = in words, background; cited from earlier work
[7] = 100 to 1200 μ mole/kg via caudal veins two hours before and two hours after ANIT 80 mg/kg, two days after ANIT
[8] = Example 2 patient, 100 mg i.v. once a day for 14 days, from the day after three days of the administration
[9] = Example 5 patient, 600 mg i.v. once a day for 18 days
[10] = Example 6 patient, obstructive jaundice, ENBD, 100 mg i.v. once a day for 22 days, after one week

## CCC1(c2ccccc2)C(=O)NC(=O)NC1=O [phenobarbital]
Intrahepatic cholestasis; steroid and phenobarbital preparations currently used
  efficacy in the treatment of intrahepatic cholestasis: a certain level of, but often insufficient, efficacy

## C[C@H](CCC(=O)NCCS(=O)(=O)O)[C@H]1CC[C@H]2[C@@H]3[C@@H](O)C[C@@H]4C[C@H](O)CC[C@]4(C)[C@H]3CC[C@]12C [tauroursodeoxycholic acid]
[1]
  LD50: 300 to 600 mg/kg
[2]; female SD rats, E-17-G 10 μ mole/kg i.v., continuous infusion over two hours via femoral veins
  infusion rate at or above which the reduction of the bile flow induced by E-17-G was inhibited: ≥ 0.3 μ mole/min/100 g body weight
[2]; female SD rats, E-17-G 10 μ mole/kg i.v., comparator free ursodeoxycholic acid
  inhibition of the reduction of bile flow compared with free ursodeoxycholic acid: more marked than that of free ursodeoxycholic acid
[2]; general conclusion
  cholagogue effect: exerts cholagogue effect
[3]; [7]
  increase of LDH activity induced by ANIT: inhibited
  increase of serum bilirubin concentration induced by ANIT: inhibited
  increase of total bile acid concentration induced by ANIT: inhibited
[3]; general conclusion
  protective effect of hepatocyte: protective effect of hepatocyte
[4]; female rats
  LD50: 800 to 1000 mg/kg
[4]; male rats
  LD50: 600 to 800 mg/kg
Solubility in water
  solubility in water: better solubility in water as compared with ursodeoxycholic acid; also recorded: high solubility in water; also recorded: excellent solubility in water
[5]; Example 1 patient, drug-induced hepatopathy, 100 mg i.v. once a day for 14 days, before: 6.9 mg/dl
  total bilirubin level: 2.1 mg/dL
[5]; Example 1 patient, drug-induced hepatopathy, 100 mg i.v. once a day for 14 days, peak before: 548 U/l
  GOT: 45 U/l
[5]; Example 1 patient, drug-induced hepatopathy, 100 mg i.v. once a day for 14 days, peak before: 664 U/l
  GPT: 36 U/l
[5]; Example 1 patient, 100 mg i.v. once a day for 14 days
  icteric symptoms and subjective symptoms such as skin itching and epigastric discomfort: disappeared
[5]; Example 2 patient, acute viral hepatitis, 100 mg i.v. once a day for 14 days, before: 21 μmole/l
  total bile acid level: 12 µmol/L
[5]; Example 2 patient, acute viral hepatitis, 100 mg i.v. once a day for 14 days, before: 31.4 mg/dl
  total bilirubin level: 13.7 mg/dL
[5]; [8]
  icteric symptoms: improvement of icteric symptoms
  subjective symptoms such as skin itching and anorexia: disappeared
[5]; Example 3 patient, drug-induced hepatopathy, 300 mg once a day i.v. drip infusion for 14 days, before: 9.0 mg/dl
  total bilirubin level: 2.8 mg/dL
[5]; Example 3 patient, 300 mg once a day i.v. drip infusion for 14 days
  icteric symptoms due to cholestasis: improvement in icteric symptoms
[5]; Example 3 patient, 300 mg once a day i.v. drip infusion for 14 days, before: 451 U/l
  GPT: 145 U/l
[5]; Example 3 patient, 300 mg once a day i.v. drip infusion for 14 days, before: 838 U/l
  GOT: 171 U/l
[5]; Example 3 patient, two weeks after the completion of 300 mg once a day i.v. drip infusion for 14 days
  total bilirubin level, GOT and GPT after completion of administration: no increase was observed
[5]; Example 4 patient, acute viral hepatitis (HBV positive), 300 mg once a day i.v. drip infusion for 14 days, before: 16.19 mg/dl
  total bilirubin level: 4.4 mg/dL
[5]; Example 4 patient, 300 mg once a day i.v. drip infusion for 14 days, at diagnosis: 6300 U/l
  GPT: 36 U/l
[5]; Example 4 patient, 300 mg once a day i.v. drip infusion for 14 days, at diagnosis: 11600 U/l
  GOT: 48 U/l
[5]; Example 4 patient, 300 mg once a day i.v. drip infusion, by the 10th day of the administration
  subjective symptoms such as skin itching and systemic malaise: disappeared
[5]; Example 4 patient, 300 mg once a day i.v. drip infusion, from the day after one week of the administration
  icteric symptoms: improved
[5]; Example 5 patient, acute viral hepatitis (type B), 600 mg i.v. once a day, after 4 days
  total bilirubin level: reduced by half
[5]; Example 5 patient, acute viral hepatitis (type B), 600 mg i.v. once a day, after one week
  total bilirubin level: almost within the normal range
[5]; [9]
  icteric symptoms and general malaise: disappeared
  other parameters related to the liver function: improved
[5]; Example 6 patient, obstructive jaundice, ENBD, 100 mg i.v. once a day for 22 days
  jaundice and skin itching: improvement of jaundice and skin itching
[5]; [10]
  bile flow: apparent increase of bile flow
  total bilirubin level: decrease of the total bilirubin level
[5]; Example 7 patient, pancreatic cancer, PTCD, 600 mg i.v. once a day for 38 days
  icteric symptoms and skin itching: improved
[5]; Example 7 patient, pancreatic cancer, PTCD, 600 mg i.v. once a day for 38 days, before: around 15 mg/dl
  total bilirubin level: 3.3 mg/dL
[5]; Example 7 patient, pancreatic cancer, PTCD, 600 mg i.v. once a day for 38 days, preadministration 230 ml/day
  bile flow: 440 mL/day
[5]; general finding, patients with liver diseases
  ameliorative effect against cholestasis: ameliorative effect against cholestasis

## C[C@H](CCC(=O)O)[C@H]1CC[C@H]2[C@@H]3[C@@H](O)C[C@@H]4C[C@H](O)CC[C@]4(C)[C@H]3CC[C@]12C [ursodeoxycholic acid]
[6]
  solubility: very low
Intrahepatic cholestasis; ursodeoxycholic acid preparations, recently reported in Japan and other countries
  efficacy against intrahepatic cholestasis: very high efficacy
